“Also recorded” adds a separate entry of the source.
Tests used:
[1] = tested on: adenosine deaminase; assay: Deamination by adenosine deaminase in vitro and in vivo; format: in vitro ADME
From the text: (§1) Inhibition of DNA polymerase is considered to be responsible for the biologic activity of AraA. The levels of F-AraATP attainable in leukemia L1210 cells in mice from the administration of 2-F-AraA are much higher than the level of AraATP atainable in these cells after administration of AraA. As a result of the maintenance of these levels of the inhibitor, F-AraATP, in them, the leukemia cells are effectively destroyed in animals. […] 2-F-AraA was also active against leukemia L1210 when administered by the oral route.
(§2) It has been noted that the antitumor activity of the parent compound, 9-β-D-arabinofuranosyladenine (AraA), is enhanced by inhibition of adenosine deaminase and inhibition of DNA synthesis in tumor cells by AraA also is enhanced by concurrent inhibition of adenosine deaminase. […] This observation that 2-fluoroadenosine is not such a substrate for adenosine deaminase led to the synthesis of 9-β-D-arabinofuranosyl-2-fluoroadenine (2-F-AraA). […] The intracellular concentration of 2-F-AraATP in L1210 cells was 45, 156 and 220 nanomoles per 10^9 cells three hours after intraperitoneal treatment with 80, 150 and 400 mg/kg of 2-F-AraA.

[2] = tested on: Leukemia L1210; assay: Therapeutic activity against leukemia L1210 implanted i.p. in mice; format: in vivo
From the text: as §1
^a 10^5 L1210 ascites cells implanted i.p. on day 0.
^b Treatments reported were selected from a range of dose levels from
lethally toxic to apparently nontoxic.
more than 16% (1/6 treated mice) dying without gross evidence of
progressive leukemia (splenomegaly), except those treated orally, in whic
^c i.p. = intraperitoneal; oral = drug administered directly into
^d % ILS = % increase in life span, compared to untreated control;
excluding 60day survivors.
^e Based on median day of death in dying animals only. Figures in
parentheses based on % survivors.
2-F-AraA was given i.p. or orally on the basis of average mouse body weight. Therapeutic activity based on observed increase in median life span of treated animals over untreated controls and on estimates of the number of viable L1210 cells present at the end of treatment is summarized in Table 2.

[3] = tested on: P388 leukemia; assay: Therapeutic activity against P388 leukemia in mice; format: in vivo; conditions: for % increase in median life span: days 1,5,9 after implant of 10^6 cells
Procedure: (§3) Relative to activity against leukemia and antiviral activity, the following summation was found: Levels of F-AraATP in acid-soluble extracts prepared from L1210 and P388 leukemia cells in mice treated with 2-F-AraA (80 mg/kg) were determined by HPLC. […] Inhibition of DNA synthesis by 2-F-AraA (80 mg/kg) in L1210 and P388 leukemia cells in vivo was pronounced for 7 hours after treatment. […] 2-F-AraA was effective against P388 leukemia; % increase in median life span of mice treated with 80 and 52 mg/kg (q3hrsx8; days 1,5,9 after implant of 10^6 cells) was 170% and 150%.

[4] = tested on: L1210 cells; assay: Intracellular 2-F-AraATP levels in L1210 cells of treated mice; format: in vivo; conditions: for level of F-AraATP in acid-soluble extracts (HPLC): L1210 cells, 80 mg/kg
From the text: as §2, §3

[5] = tested on: P388 leukemia cells; assay: F-AraATP levels in P388 leukemia cells of treated mice (HPLC); format: in vivo; conditions: 80 mg/kg
Procedure: as §3

[6] = tested on: L1210 cells; assay: DNA synthesis in L1210 cells in vivo; parameters: species or system mice; conditions: 80 mg/kg, for 7 hours after treatment
Procedure: Protein synthesis was less affected and RNA synthesis was not inhibited under the same experimental conditions.
as §3

[7] = tested on: P388 leukemia cells; assay: DNA synthesis in P388 leukemia cells in vivo; parameters: species or system mice; conditions: 80 mg/kg, for 7 hours after treatment
Procedure: as §3

[8] = tested on: Herpes Simplex Virus Type 1; assay: In vitro antiviral activity, Virus Rating; format: cell-based
[9] = tested on: Vaccinia Virus; format: cell-based
[10] = tested on: Human Cytomegalovirus; assay: In vitro antiviral activity, Virus Rating; format: cell-based; conditions: average VR adjusted for number of Microtiter wells; VR ≤0.5 no significant activity
From the text: (§4) *Virus Rating (VR): A weighted measurement of antiviral activity which
(§5) takes into account the degree of virusspecific cytopathogenic effect
(§6) (cpe)inhibition, toxicity, and virus concentration, as determined by a
(§7) modification of the methods of Ehrlich et al. (Ann. N.Y. Acad. Sci. 140:7
(§8) 1965). In our experience, a VR≥1.0 indicates definite antiviral
(§9) activity; a VR of 0.5-0.9 indicates moderate antiviral activity; and a VR
(§10) ≤0.5 indicates no significant antiviral activity.
(§11) ^+ Average VR adjusted for number of Microtiter wells employed.

[11] = tested on: Parainfluenza Virus Type 3; assay: In vitro antiviral activity, Virus Rating; format: cell-based; conditions: average VR adjusted for number of Microtiter wells; VR ≤0.5 no significant activity
From the text: as §4, §5, §6, §7, §8, §9, §10, §11

[12] = tested on: Rhinovirus Type 1A; assay: In vitro antiviral activity, Virus Rating; format: cell-based; conditions: average VR adjusted for number of Microtiter wells; VR ≤0.5 no significant activity
From the text: as §4, §5, §6, §7, §8, §9, §10, §11

[13] = Expt. 1, 100 mg/kg/dose q3h × 8, days 1,5,9, i.p.
[14] = Expt. 2, 100 mg/kg/dose q6h × 4, days 1,5,9, i.p.
[15] = Expt. 2, 150 mg/kg/dose q3h × 8, days 1,5,9, oral
[16] = Expt. 2, 400 mg/kg/dose q12h × 2, days 1,5,9, i.p.
[17] = second line of the same regimen: 100 mg/kg/dose q3h × 8, days 1,5,9, i.p.
[18] = average VR adjusted for number of Microtiter wells, VR≥1.0 definite activity

Q: `Nc1nc(F)nc2c1ncn2[C@@H]1O[C@H](CO)[C@@H](O)[C@@H]1O` [2-F-AraA, 9-β-D-arabinofuranosyl-2-fluoroadenine] was tested. Which “deamination by adenosine deaminase” value [1] did it give?
A: not a substrate for adenosine deaminase; also recorded: not deaminated; also recorded: completely resistant to deamination

Q: What about the “increase in life span of animals dying of leukemia” value ([2]; 100 mg/kg i.p. once every three hours on days 1, 5, 9, 10^5 cells, 4 of 6 animals) of the same molecule?
A: 123-155%

Q: And the “animals deemed recovered from the disease” value ([2]; 100 mg/kg i.p. once every three hours on days 1, 5, 9, of 6 animals)?
A: two

Q: And the “therapeutic result compared with the 100 mg/kg q3h regimen” value ([2]; 400 mg/kg twice a day on days 1, 5, 9)?
A: Comparable results

Q: And the “therapeutic activity against L1210 leukemia” value ([2]; 2-F-AraA alone, BDFl mice, 10^5 cells i.p.)?
A: reproducible therapeutic activity; also recorded: therapeutically effective

Q: What about the “60-Day Survivors” value [2, 13] of the same molecule?
A: 2/6

Q: What about the “Estimated No. L1210 Cells Surviving Therapy (based on median day of death)” value [2, 13] of the same molecule?
A: 4 × 10^4

Q: And the “Estimated No. L1210 Cells Surviving Therapy (in parentheses, based on % survivors)” value [2, 13]?
A: 1.1

Q: What about the “Median % ILS” value [2, 13] of the same molecule?
A: 123%

Q: What about the “Median Day of Death (Dying Mice Only), Treated” value (“Median Day of Death … Treated” for short) ([2]; Expt. 1, 100 mg/kg/dose q3h × 8, days 1,5,9, i.p., control 8.5) of the same molecule?
A: 19

Q: What about the “60-Day Survivors” value [2, 14] of the same molecule?
A: 0/6

Q: And the “Estimated No. L1210 Cells Surviving Therapy (based on median day of death)” value [2, 14]?
A: 3 × 10^6

Q: What about the “Median % ILS” value [2, 14] of the same molecule?
A: 83%

Q: What about the “Median Day of Death … Treated” value ([2]; Expt. 2, 100 mg/kg/dose q6h × 4, days 1,5,9, i.p., control 9) of the same molecule?
A: 16.5

Q: What about the “Estimated No. L1210 Cells Surviving Therapy (based on median day of death)” value [2, 15] of the same molecule?
A: 2 × 10^7

Q: And the “Median % ILS” value [2, 15]?
A: 66%

Q: And the “Median Day of Death … Treated” value ([2]; Expt. 2, 150 mg/kg/dose q3h × 8, days 1,5,9, oral, control 9)?
A: 15

Q: What about the “60-Day Survivors” value [2, 16] of the same molecule?
A: 1/6

Q: And the “Estimated No. L1210 Cells Surviving Therapy (based on median day of death)” value [2, 16]?
A: 2 × 10^3

Q: And the “Estimated No. L1210 Cells Surviving Therapy (in parentheses, based on % survivors)” value [2, 16]?
A: 1.8

Q: What about the “Median % ILS” value [2, 16] of the same molecule?
A: 144%

Q: What about the “Median Day of Death … Treated” value ([2]; Expt. 2, 400 mg/kg/dose q12h × 2, days 1,5,9, i.p., control 9) of the same molecule?
A: 22

Q: And the “treated mice dying without gross evidence of progressive leukemia (splenomegaly)” value ([2]; i.p. treatments reported in Table 2 (1/6 treated mice))?
A: ≤ 16%

Q: What about the “toxicity over the dose range tested” value ([2]; mice treated orally) of the same molecule?
A: no toxic levels

Q: What about the “activity against leukemia L1210” value ([2]; oral route) of the same molecule?
A: some therapeutic activity; also recorded: active

Q: What about the “60-Day Survivors” value [2, 17] of the same molecule?
A: 1/6

Q: What about the “Estimated No. L1210 Cells Surviving Therapy (based on median day of death)” value [2, 17] of the same molecule?
A: 5 × 10^2

Q: And the “Estimated No. L1210 Cells Surviving Therapy (in parentheses, based on % survivors)” value [2, 17]?
A: 1.8

Q: What about the “Median % ILS” value [2, 17] of the same molecule?
A: 155%

Q: And the “Median Day of Death … Treated” value ([2]; second line of the same regimen: 100 mg/kg/dose q3h × 8, days 1,5,9, i.p., control 9)?
A: 23

Q: What about the “% increase in median life span” value ([3]; 52 mg/kg q3hrsx8) of the same molecule?
A: 150%

Q: What about the “% increase in median life span” value ([3]; 80 mg/kg q3hrsx8) of the same molecule?
A: 170%

Q: What about the “activity against P388 leukemia in mice” value ([3]; mouse, in vivo) of the same molecule?
A: effective; also recorded: active

Q: And the “2-F-AraATP in L1210 cells” value ([4]; 9 and 18 hours after a single dose of 80 and 150 mg/kg)?
A: not found

Q: And the “2-F-AraATP in L1210 cells” value ([4]; 18 hours after a dose of 400 mg/kg)?
A: significant levels were present

Q: And the “intracellular pools of 2-F-AraATP in L1210 cells” value ([4]; BDFl mice treated with 2-F-AraA alone, versus AraATP from AraA plus adenosine deaminase inhibitor)?
A: comparable

Q: What about the “level of F-AraATP in acid-soluble extracts (HPLC)” value (“level of F-AraATP” below) ([4]; 1 to 6 hours after treatment) of the same molecule?
A: 30-50 nmoles/gm cells

Q: And the “level of F-AraATP” value ([4]; 9 hours after treatment)?
A: none was detected

Q: And the “levels of F-AraATP attainable in leukemia L1210 cells in mice, compared with AraATP after AraA” value ([4]; after administration of 2-F-AraA)?
A: much higher

Q: What about the “level of F-AraATP” value ([5]; 1 to 6 hours after treatment) of the same molecule?
A: 30-50 nmoles/gm cells

Q: And the “level of F-AraATP” value ([5]; 9 hours after treatment)?
A: none was detected

Q: What about the “inhibition of DNA synthesis in vivo” value [6] of the same molecule?
A: pronounced

Q: What about the “inhibition of DNA synthesis in vivo” value [7] of the same molecule?
A: pronounced

Q: And the “activity against the virus” value [8]?
A: demonstrated activity

Q: What about the “Virus Rating (VR)” value [8, 18] of the same molecule?
A: 1.4

Q: And the “Virus Rating (VR)” value [9, 18]?
A: 1.3

Q: What about the “activity against the virus” value ([9]; grown in H.Ep.-2 cells in culture) of the same molecule?
A: demonstrated activity

Q: What about the “Virus Rating (VR)” value [10] of the same molecule?
A: 0.3

Q: What about the “Virus Rating (VR)” value [11] of the same molecule?
A: 0

Q: What about the “Virus Rating (VR)” value [12] of the same molecule?
A: 0

From patent US4188378A, “Anticancer and antiviral activity of 9-β-D-arabinofuranosyl-2-fluoroadenine” (The United States of America as represented by the …, priority 1978, dated 1980)
